A word on the Ki: it is a dissociation constant, usually derived from enzyme kinetics or from competition with a known ligand. By EC50 is commonly meant the midpoint of the concentration-response curve.

Experimental findings from article PMC9519552, “Activation of the human insulin receptor by non-insulin-related peptides” (Nature Communications, 2022) are described below.

In one data set the target is T1, human IR-A (holoIR-A) (Homo sapiens, UniProt P06213).
T1 construct: expressed in transfected cells; host or cells: HEK293 (ATCC #CRL-1573), stably transfected; membrane preparation
T1 sequence (P06213 28-1370 isoform P06213-2 limits assumed): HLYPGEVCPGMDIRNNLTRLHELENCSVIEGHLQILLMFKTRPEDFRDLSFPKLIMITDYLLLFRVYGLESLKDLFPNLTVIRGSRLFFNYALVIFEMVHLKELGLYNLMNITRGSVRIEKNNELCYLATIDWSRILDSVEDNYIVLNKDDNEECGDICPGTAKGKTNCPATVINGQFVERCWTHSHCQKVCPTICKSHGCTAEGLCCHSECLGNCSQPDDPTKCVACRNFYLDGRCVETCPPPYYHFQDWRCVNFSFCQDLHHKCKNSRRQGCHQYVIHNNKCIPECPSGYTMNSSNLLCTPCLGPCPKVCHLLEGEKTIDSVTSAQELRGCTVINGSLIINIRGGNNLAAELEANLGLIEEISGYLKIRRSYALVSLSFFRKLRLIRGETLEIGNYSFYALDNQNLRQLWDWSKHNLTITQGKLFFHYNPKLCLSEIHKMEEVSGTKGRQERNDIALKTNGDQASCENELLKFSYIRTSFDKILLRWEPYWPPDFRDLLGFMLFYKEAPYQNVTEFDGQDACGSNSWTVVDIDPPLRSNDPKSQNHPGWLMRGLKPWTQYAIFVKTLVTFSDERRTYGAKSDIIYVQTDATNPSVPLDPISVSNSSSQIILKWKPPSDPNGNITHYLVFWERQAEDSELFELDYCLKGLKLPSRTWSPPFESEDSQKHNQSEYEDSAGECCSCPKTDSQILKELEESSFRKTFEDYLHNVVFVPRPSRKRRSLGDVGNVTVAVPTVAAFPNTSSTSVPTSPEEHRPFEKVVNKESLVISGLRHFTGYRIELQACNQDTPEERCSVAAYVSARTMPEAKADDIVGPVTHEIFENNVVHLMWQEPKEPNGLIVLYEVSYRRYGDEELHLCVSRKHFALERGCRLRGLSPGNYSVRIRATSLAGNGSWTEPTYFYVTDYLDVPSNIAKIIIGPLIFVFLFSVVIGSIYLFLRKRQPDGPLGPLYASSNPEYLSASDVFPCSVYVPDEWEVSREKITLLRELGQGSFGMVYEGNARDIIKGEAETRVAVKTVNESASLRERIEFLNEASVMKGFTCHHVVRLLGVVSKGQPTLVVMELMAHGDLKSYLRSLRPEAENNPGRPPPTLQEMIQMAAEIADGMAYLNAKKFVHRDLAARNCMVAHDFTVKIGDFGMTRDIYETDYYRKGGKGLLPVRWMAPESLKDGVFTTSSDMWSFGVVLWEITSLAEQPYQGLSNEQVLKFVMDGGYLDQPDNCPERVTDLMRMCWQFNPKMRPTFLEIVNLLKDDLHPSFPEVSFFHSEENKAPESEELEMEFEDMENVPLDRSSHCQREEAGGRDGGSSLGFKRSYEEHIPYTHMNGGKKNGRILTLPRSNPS
T1 sequence (P06213 763-1382 partner limits assumed): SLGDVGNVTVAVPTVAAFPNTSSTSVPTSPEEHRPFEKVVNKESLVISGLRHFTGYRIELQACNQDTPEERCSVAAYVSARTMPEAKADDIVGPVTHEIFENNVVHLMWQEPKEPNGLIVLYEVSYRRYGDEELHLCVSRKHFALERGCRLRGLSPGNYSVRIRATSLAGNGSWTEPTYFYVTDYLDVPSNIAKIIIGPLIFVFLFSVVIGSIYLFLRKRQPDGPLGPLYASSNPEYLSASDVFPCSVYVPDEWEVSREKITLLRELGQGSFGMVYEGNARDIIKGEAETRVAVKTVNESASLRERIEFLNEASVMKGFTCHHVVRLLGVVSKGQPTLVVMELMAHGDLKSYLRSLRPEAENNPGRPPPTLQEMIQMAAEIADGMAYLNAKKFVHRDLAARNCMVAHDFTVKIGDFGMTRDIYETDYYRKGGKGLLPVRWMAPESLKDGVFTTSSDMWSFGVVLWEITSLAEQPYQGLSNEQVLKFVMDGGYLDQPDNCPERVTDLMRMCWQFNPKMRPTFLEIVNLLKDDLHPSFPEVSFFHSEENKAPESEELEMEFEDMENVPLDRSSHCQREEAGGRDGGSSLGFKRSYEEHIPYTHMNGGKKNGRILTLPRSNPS
The data set can be described thus: holoIR-A competitive radioligand binding assay (scintillation proximity assay). The conditions noted are these: for Ki: primary peptide set, mean of 3 runs, read-out: IRA Binding Ki Mean. In short, it runs like this: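 Membranes from HEK293 cells stably expressing C9-tagged human IR-A were used in a WGA-bead SPA competition assay in 50 mM Tris-HCl pH 7.5, 150 mM NaCl, 0.1% fatty-acid-free BSA. Ten-point 3-fold dilutions were incubated 10 h at room temperature before scintillation counting. Percent specific inhibition was calculated after nonspecific-binding correction, from three independent runs.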

In data set [1] the target is T2, human holoIR-A over-expressed in HEK293 cells (Homo sapiens, UniProt P06213).
T2 construct: expressed in transfected cells; host or cells: HEK293, stably transfected
T2 sequence (P06213 28-1370 isoform P06213-2 limits assumed): as the sequence (P06213 28-1370 isoform P06213-2 limits assumed) above
T2 sequence (P06213 763-1382 partner limits assumed): as the sequence (P06213 763-1382 partner limits assumed) above
The data set can be described thus: holoIR-A auto-phosphorylation assay (ELISA). It is filed as cell-based. As for the experimental part:
Phosphorylation was quantified using an ELISA technique. Ninety-six well, flat-bottom microplates (Greiner Bio-One) were pre-coated with 2 µg mL^−1 anti-C9 monoclonal antibody (Rho 1D4; University of British Columbia)[27] in 20 mM sodium carbonate, pH 9.6, at 4 °C for overnight prior to the assay. On the assay day, plates were washed 3× with 0.1% Tween in 50 mM Tris Buffer Saline, pH 7.5 (TBST), and then blocked for greater than 1 h at room temperature (RT) with 1% BSA (Sigma) in TBST.
Stably transfected HEK293 cells over-expressing human holoIR-A containing a C-terminal C9 epitope tag ([…]), were plated at 6 × 10^4 cells per well serum-starved using 0.1% BSA in DMEM (Gibco) for overnight at standard tissue culture condition. […] After a 15-min incubation in lysis buffer at 4 °C, the lysate was transferred to anti-C9 antibody coated capture plate (Rho 1D4; University of British Columbia)[27]. […] After a 1 h incubation at room temperature, the secondary antibody was removed by washing 3× with TBST. Signal detection occurred with the addition of TMB, an HRP substrate (Pierce). After 5–10 min, the reaction was stopped by adding an equal volume of 2 M H2SO4, and the absorbance readings at 450 nm (A450) were recorded using a Envision plate reader (PerkinElmer). Samples were tested in three independent assay runs on three different days.
Percent specific response (y-axis) was plotted versus the log concentration of compound (x-axis) using Prism Version 9.3.1 (GraphPad Software). Individual measurements are provided as Source Data.
A general note: An ELISA detects its analyte on a solid surface through an enzyme-linked reagent.

Data set [2] concerns [holoIR-A]-expressing IM-9 human lymphoblast cells. Nature of the data set: holoIR-A accelerated dissociation assay of pre-bound 125I-insulin. It is filed as binding. The settings on record: IM-9 cells, 1:40 dilution, 16 °C, 30 min; n = 3. The protocol: Ice-cold 15-25 pM ^125I-insulin solution was added to IM-9 cells and incubated at 4 °C for 2.5 h for pre-bound experiments. […] Following receptor and ^125I-insulin pre-bound, the mix was quickly centrifugated and supernatant was removed. The bound ^125I-insulin and IM-9 cells were then resuspended with 16 °C pre-equilibrated HBB, pH 7.6. The ^125I-ligand/IM-9 cell mixture was aliquoted to cold compounds at 1:40 ratio, respectively. The reactions were incubated at 16 °C for 30 min to allow dissociation of prebound ^125I-insulin and then harvested by centrifugation and aspiration of the supernatant. The radioactivity of cell pellets was determined by gamma counter (Perkin Elmer). Samples were tested in three independent assay runs on three different days. Individual measurements are provided as Source Data.

Data set [3] concerns the molecule itself. The data set can be described thus: cryo-EM structure; IM459-complexed hIR-A^ecto, eluted with IM459 from an insulin-affinity column and purified by SEC in TBSA; focussed refinement to ca 5.0 Å. (In general: In gel filtration, larger molecules generally elute earlier.)
The mark [4] stands for this setting: primary peptide set, mean of 3 runs, read-out: hIRA Phosph EC50 Mean.

Where two headings read alike, the source gives them in different places. Positions of bridges follow the written chain, without caps; N, C: chain ends. Non-standard residues stand in square brackets, D forms with d. Residues, ends and D or L forms follow the SMILES beside them. *: point of attachment. X1 = NCc1ccc(CC(=O)*)cc1; PhAc = O=C(Cc1ccccc1)*; Aib = CC(C)(N)C(=O)O

For the molecule `CC[C@H](C)[C@H](NC(=O)[C@H](CCC(N)=O)NC(=O)[C@H](C)NC(=O)[C@H](Cc1c[nH]c2ccccc12)NC(=O)[C@H](CCC(=O)O)NC(=O)[C@H](CCC(=O)O)NC(=O)[C@H](CCC(=O)O)NC(=O)[C@H](CC(C)C)NC(=O)[C@H](CO)NC(=O)Cc1ccccc1)C(=O)N[C@@H](CCC(=O)O)C(=O)N[C@H]1CSSC[C@@H](C(=O)N2CCC[C@H]2C(=O)N2CCC[C@H]2C(=O)N[C@@H](CO)C(=O)N[C@@H](CCC(=O)O)C(=O)N[C@@H](CO)C(=O)N[C@@H](Cc2ccc(OC)cc2)C(=O)N[C@@H](Cc2ccc(O)cc2)C(=O)N[C@@H](CCCCN)C(=O)N[C@@H](Cc2c[nH]c3ccccc23)C(=O)N[C@@H](Cc2ccccc2)C(=O)N[C@@H](CCC(=O)O)C(=O)N[C@@H](CCCNC(=N)N)C(=O)N[C@@H](CCC(N)=O)C(=O)N[C@@H](CC(C)C)C(N)=O)NC(=O)[C@H](CCCNC(=N)N)NC(=O)CNC(=O)[C@H](Cc2ccc(O)cc2)NC(=O)[C@H](C(C)C)NC(=O)[C@H](CCC(=O)O)NC1=O` [IM172] (PhAc-SLEEEWAQIECEVYGRCPPSESY(Me)YKWFERQL-NH2; disulfide 11-17), the “affinity for hIR (in words)” value on human IR-A (holoIR-A) (comparable to that of BHI) is on record as “sub-nM”. Besides, the Ki at human IR-A (holoIR-A) came to 0.255 nM. In data set [1] (setting [4]), the EC50 worked out at 7.06 nM. Also, in data set [1] (primary peptide set), the “hIRA Phosph EC50 Run 1” value stood at 6.352 nM, the “hIRA Phosph EC50 Run 2” value turned out to be 8.068 nM and the “hIRA Phosph EC50 Run 3” value is on record as 6.757 nM. Besides, the “weaker activity than BHI in an hIR autophosphorylation assay” value in data set [1] (relative to biosynthetic human insulin) is around 2.5 fold. Besides, in data set [2], the “effect on dissociation of pre-bound I125-insulin tracer from native membrane-expressed hIR (in words)” value is recorded as “trend similarly, but more weakly”.

As for `CC[C@H](C)[C@H](NC(=O)[C@H](CCCCN)NC(=O)C(C)(C)NC(=O)[C@H](Cc1c[nH]c2ccccc12)NC(=O)[C@H](CCC(=O)O)NC(=O)[C@H](CCC(N)=O)NC(=O)[C@H](CCC(=O)O)NC(=O)[C@H](CC(C)C)NC(=O)[C@H](CO)NC(=O)Cc1ccc(CN)cc1)C(=O)N[C@@H](CCC(=O)O)C(=O)N[C@H]1CSSC[C@@H](C(=O)N2CCC[C@H]2C(=O)N2CCC[C@H]2C(=O)N[C@@H](CCCCN)C(=O)N[C@@H](CCCCN)C(N)=O)NC(=O)[C@H](CCCCN)NC(=O)CNC(=O)[C@H](Cc2ccc(O)cc2)NC(=O)[C@H](C(C)C)NC(=O)[C@H](CCC(=O)O)NC1=O` [IM459N21] (X1-SLEQEW[Aib]KIECEVYGKCPPKK-NH2; disulfide 11-17), on human IR-A (holoIR-A), the Ki was 10.6 nM. For the same molecule, the EC50 in data set [1] (Fig. 1b, HEK293 hIR-A cells, 1 h 37 °C, ELISA, errors given as SEM, n = 3 independent replicates, read-out: Auto-phosphorylation constant EC50) was above 1000 nM. For the same molecule, the EC50 in data set [1] (setting [4]) is above 1000 nM. Besides, in data set [1] (primary peptide set), the “hIRA Phosph EC50 Run 1” value is recorded as above 1000 nM, the “hIRA Phosph EC50 Run 2” value is above 1000 nM and the “hIRA Phosph EC50 Run 3” value is recorded as above 1000 nM. The “effect on dissociation of pre-bound I125-insulin tracer from native membrane-expressed hIR (in words)” value in data set [2] is on record as “effect of IM459 is fully reproduced”.

B1: hIR-A^ecto (insulin receptor isoform A ectodomain, residues 1-914) (domain or fragment, human, UniProt P06213-2 28-941, looked up)
chain: HLYPGEVCPGMDIRNNLTRLHELENCSVIEGHLQILLMFKTRPEDFRDLSFPKLIMITDYLLLFRVYGLESLKDLFPNLTVIRGSRLFFNYALVIFEMVHLKELGLYNLMNITRGSVRIEKNNELCYLATIDWSRILDSVEDNYIVLNKDDNEECGDICPGTAKGKTNCPATVINGQFVERCWTHSHCQKVCPTICKSHGCTAEGLCCHSECLGNCSQPDDPTKCVACRNFYLDGRCVETCPPPYYHFQDWRCVNFSFCQDLHHKCKNSRRQGCHQYVIHNNKCIPECPSGYTMNSSNLLCTPCLGPCPKVCHLLEGEKTIDSVTSAQELRGCTVINGSLIINIRGGNNLAAELEANLGLIEEISGYLKIRRSYALVSLSFFRKLRLIRGETLEIGNYSFYALDNQNLRQLWDWSKHNLTITQGKLFFHYNPKLCLSEIHKMEEVSGTKGRQERNDIALKTNGDQASCENELLKFSYIRTSFDKILLRWEPYWPPDFRDLLGFMLFYKEAPYQNVTEFDGQDACGSNSWTVVDIDPPLRSNDPKSQNHPGWLMRGLKPWTQYAIFVKTLVTFSDERRTYGAKSDIIYVQTDATNPSVPLDPISVSNSSSQIILKWKPPSDPNGNITHYLVFWERQAEDSELFELDYCLKGLKLPSRTWSPPFESEDSQKHNQSEYEDSAGECCSCPKTDSQILKELEESSFRKTFEDYLHNVVFVPRPSRKRRSLGDVGNVTVAVPTVAAFPNTSSTSVPTSPEEHRPFEKVVNKESLVISGLRHFTGYRIELQACNQDTPEERCSVAAYVSARTMPEAKADDIVGPVTHEIFENNVVHLMWQEPKEPNGLIVLYEVSYRRYGDEELHLCVSRKHFALERGCRLRGLSPGNYSVRIRATSLAGNGSWTEPTYFYVTDYLDVPSN
notes: written as one chain of the [αβ]2 dimer; also called hIR ectodomain
For the molecule B1, in data set [3], the binding result is given as “binds”.
